In ChEMBL document CHEMBL6178015, “Discovery of a Novel Serine-Targeting Covalent Inhibitor against HCES2A for Treating Drug-induced Diarrhea and Ulcerative Colitis” (J Med Chem, 2025):

What was measured:
[1] = Inhibition of human CES2A using fluorescein diacetate as substrate preincubated for 3 mins followed by substrate addition and measured after 30 mins by fluorescence microplate reader
Homo sapiens = species on record: Homo sapiens; assay: Selectivity index, ratio of IC50 for inhibition of human CES1A to IC50 for inhibition of human CES2A
[2] = Inhibition of human CES1A using NLMe as substrate preincubated for 3 mins followed by substrate addition and measured after 20 mins by chemiluminescence analysis

| SMILES | IC50 [1] [µM] | Ratio IC50 (Homo sapiens) | IC50 [2] [µM] |
| --- | --- | --- | --- |
| CCCC(=O)c1cccc2oc(-c3ccccc3N)cc12 | 11.1 |  |  |
| CCCCCCC(=O)c1cccc2oc(-c3cc(OC)ccc3OC(=O)N3CCCC3)cc12 | 0.000249 | 22.7 | 0.00565 |
| CCCCCCC(=O)c1cccc2oc(-c3ccccc3NC(=O)OCCCl)cc12 | 0.0566 | > 176 | > 10 |
| CCCCCCC(=O)c1cccc2oc(-c3cc(C)ccc3NC(=O)OCC(CC)CCCC)cc12 (centres undefined) | 4.26 |  |  |
| CCCCCCCCC(=O)c1cccc2oc(-c3cc(OC)ccc3OC(=O)N(C)CC)cc12 | 0.000625 | 6.4 | 0.004 |
| CN(C)C(=O)C(CCN1CCC(O)(c2ccc(Cl)cc2)CC1)(c1ccccc1)c1ccccc1 [LOPERAMIDE] | 0.351 |  |  |

Next, values leading:

| IC50 [1] [µM] | Ratio IC50 (Homo sapiens) | IC50 [2] [µM] | SMILES |
| --- | --- | --- | --- |
| 0.623 |  |  | CCCCCCC(=O)c1cccc2oc(-c3cc(C)ccc3NC(=O)OCCCC)cc12 |
| 0.383 |  |  | C=CCOC(=O)Nc1ccc(C)cc1-c1cc2c(C(=O)CCCCCC)cccc2o1 |
